Data on seven compounds can be found in patent US12458605B2, “Lipid nanoparticle” (National University Corporation Hokkaido University, priority 2020, dated 2025).

Data set [1] is described as follows: Average particle size (ζ-Average) and PDI by dynamic light scattering (Zetasizer Nano ZSP). It is filed as physicochemical. The essentials:
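Lipid nanoparticles dispersed in PBS(−) were sized by dynamic light scattering, giving the ζ-Average diameter and polydispersity index (PDI).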

In another data set the test system is liver. As to the kind of experiment: In vivo Fluc activity of FlucmRNA-loaded LNP by in vivo imaging, liver. The following applies: Balb/c mice, 6 hours; for Fluc activity in the liver, compared with CL15F6: 0.1 mg mRNA/kg, versus LNP comprising CL15F6 (Table 7); for Fluc Activity in liver: FlucmRNA-loaded LNP i.v. 0.1 mg mRNA/kg. Put shortly: (§1)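 Female Balb/c mice, 7 weeks old, received LNP i.v. at 0.1 mg mRNA/kg. At 6 h, luciferin was given via tail vein at 1.5 mg per mouse, and liver and spleen luminescence was imaged as Avg Radiance [p/s/cm2/sr] near 560 nm.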

A short description of data set [2]: Storage stability of FlucmRNA-loaded LNP at −80, 5, 25 and 40° C. The following applies: for period for which quality remained good, −80° C.: maximum storage period 1 week; for period for which quality remained good, 5° C. / period for which quality remained good, 25° C. / period for which quality remained good, 40° C. (weeks): maximum storage period 5 weeks. It is filed as physicochemical. Put shortly:
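FlucmRNA-loaded LNPs held at −80, 5, 25 or 40° C; at each time point size, PDI and encapsulation measured. Quality deemed maintained while size stays within ±20 nm of preparation day, PDI ≤0.2 and encapsulation ≥80%; value is the period meeting all three.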

For a further data set, the system named is spleen. The experiment in a line: In vivo Fluc activity of FlucmRNA-loaded LNP by in vivo imaging, spleen. The conditions noted are these: Balb/c mice, 6 hours; for Fluc activity in the spleen, compared with CL15F6: 0.1 mg mRNA/kg, versus LNP comprising CL15F6 (Table 7); for Fluc Activity in spleen: FlucmRNA-loaded LNP i.v. 0.1 mg mRNA/kg. Put shortly:
as §1

For the next data set, the system named is F7. The experiment in a line: In vivo F7 knockdown, plasma F7 enzyme activity (BIOPHEN FVII), Balb/c mice. The conditions noted are these: for knockdown activity, compared with MC3: F7siRNA-loaded LNP, versus LNP comprising MC3; for F7 enzyme activity (Ratio using MC3 as 1): i.v. 0.025 mg siRNA/kg, plasma at 24 hours, relative plasma F7 activity of MC3 LNP as 1. The essentials: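 Female Balb/c mice, 5 weeks old, received F7 siRNA lipid nanoparticles i.v. at 0.025 mg siRNA/kg; plasma F7 activity measured chromogenically (BIOPHEN FVII) 24 h later. Values are % of untreated mice, also expressed as a ratio to MC3-containing nanoparticles set at 1.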

The nature of data set [3]: siRNA/mRNA encapsulation rate by Ribogreen reagent (section IV). The conditions noted are these: for % siRNA encapsulation: F7siRNA-loaded LNP, 50:10:38.5:1.5, N/P ratio 6; for % mRNA encapsulation: FlucmRNA-loaded LNP, 50:10:38.5:1.5. It is filed as physicochemical. Put shortly: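 LNPs diluted in TE buffer to 8 μg/mL nucleic acid for surface RNA, or to 1.2 μg/mL with 1% Triton X-100 for total RNA. RiboGreen fluorescence (ex 485/em 528 nm) quantified against a Triton-containing standard curve (0-2.5 μg/mL). Encapsulation % = (total − surface)/total × 100.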

[4] abbreviates: F7siRNA-loaded LNP, 50:10:38.5:1.5, N/P ratio 6.
Where [5] appears, read: FlucmRNA-loaded LNP, 50:10:38.5:1.5.
Setting [6] is: FlucmRNA-loaded LNP, lipid:DSPC:cholesterol:DMG-PEG2K 50:10:38.5:1.5.

`CCCCCCCCCC(CCCCCC)C(=O)OCCCCCCC(O)(CCCCCCOC(=O)C(CCCCCC)CCCCCCCCC)CCCCOC(=O)C1CCN(C)CC1` (stereo not shown) [CL15F 11-6]: in data set [1] (setting [4]), the PDI was found to be 0.025 and the “ζ-Average (nm)” value came out at 101.2 nm. Further, the PDI in data set [1] (setting [5]) is given as 0.007. The “ζ-Average (nm)” value in data set [1] (setting [6]) is given as 106.50 nm. Also, in the data set with liver, the “Fluc activity in the liver, compared with CL15F6” value is recorded as “higher Fluc activity” and the “Fluc Activity in liver” value is 9.09E+06 Avg Radiance [p/s/cm2/sr]. In data set [2], the “period for which quality remained good, −80° C.” value was found to be 1 week; the “period for which quality remained good, 5° C.” value was 5 weeks; the “period for which quality remained good, 25° C.” value is 5 weeks; the “period for which quality remained good, 40° C. (weeks)” value is 5 weeks. Besides, in the data set on spleen, the “Fluc activity in the spleen, compared with CL15F6” value was “higher Fluc activity” and the “Fluc Activity in spleen” value came out at 8.19E+06 Avg Radiance [p/s/cm2/sr]. Further, in the data set on F7, the “knockdown activity, compared with MC3” value is “higher knockdown activity” and the “F7 enzyme activity (Ratio using MC3 as 1)” value was 0.81. Besides, in data set [3], the “% siRNA encapsulation” value is recorded as 100.3% and the “% mRNA encapsulation” value worked out at 99.75%.

On to `CCCCCCCCCC(CCCCCCC)C(=O)OCCCCCCC(O)(CCCCCCOC(=O)C(CCCCCCC)CCCCCCCCC)CCCCOC(=O)C1CCN(C)CC1` (stereo not shown) [CL15F 11-7], for which, in data set [1] (setting [4]), the PDI was determined as 0.049 and the “ζ-Average (nm)” value is reported as 102.5 nm. In data set [1] (setting [5]), this compound showed a PDI of 0.002. Besides, the “ζ-Average (nm)” value in data set [1] (setting [6]) amounted to 102.50 nm. Also, in the data set with liver, the “Fluc activity in the liver, compared with CL15F6” value is listed as “higher Fluc activity” and the “Fluc Activity in liver” value was determined as 1.10E+07 Avg Radiance [p/s/cm2/sr]. Besides, in data set [2], the “period for which quality remained good, −80° C.” value was found to be 1 week; the “period for which quality remained good, 5° C.” value is recorded as 5 weeks; the “period for which quality remained good, 25° C.” value was 5 weeks; the “period for which quality remained good, 40° C. (weeks)” value is on record as 5 weeks. For the same compound, in the data set on spleen, the “Fluc activity in the spleen, compared with CL15F6” value is reported as “higher Fluc activity” and the “Fluc Activity in spleen” value came out at 7.13E+06 Avg Radiance [p/s/cm2/sr]. In the data set with F7, the “knockdown activity, compared with MC3” value was “higher knockdown activity” and the “F7 enzyme activity (Ratio using MC3 as 1)” value stood at 0.85. Besides, in data set [3], the “% siRNA encapsulation” value stood at 100.6% and the “% mRNA encapsulation” value was 99.86%.

As for `CCCCCCCCCC(CCCCCCCCC)C(=O)OCCCCCCC(O)(CCCCCCOC(=O)C(CCCCCCCCC)CCCCCCCCC)CCCCOC(=O)C1CCN(C)CC1` [CL15F 11-9], in data set [1] (setting [4]), the PDI is 0.029 and the “ζ-Average (nm)” value turned out to be 104.9 nm. This compound gave a PDI in data set [1] (setting [5]) of 0.023. Further, in data set [1] (setting [6]), the “ζ-Average (nm)” value was determined as 99.31 nm. Also, in the data set with liver, the “Fluc activity in the liver, compared with CL15F6” value was “higher Fluc activity” and the “Fluc Activity in liver” value came out at 3.66E+07 Avg Radiance [p/s/cm2/sr]. Further, in data set [2], the “period for which quality remained good, −80° C.” value was found to be 1 week; the “period for which quality remained good, 5° C.” value came out at 5 weeks; the “period for which quality remained good, 25° C.” value is on record as 5 weeks; the “period for which quality remained good, 40° C. (weeks)” value amounted to 5 weeks. Further, in the data set with spleen, the “Fluc activity in the spleen, compared with CL15F6” value is “higher Fluc activity” and the “Fluc Activity in spleen” value was found to be 7.55E+06 Avg Radiance [p/s/cm2/sr]. In the data set on F7, the “knockdown activity, compared with MC3” value is reported as “higher knockdown activity” and the “F7 enzyme activity (Ratio using MC3 as 1)” value is 0.50. Also, in data set [3], the “% siRNA encapsulation” value is on record as 101.1% and the “% mRNA encapsulation” value came out at 99.78%.

As to `CCCCCCCCCCC(CCCC)C(=O)OCCCCCCC(O)(CCCCCCOC(=O)C(CCCC)CCCCCCCCCC)CCCCOC(=O)C1CCN(C)CC1` (stereo not shown) [CL15F 12-4], in data set [1] (setting [4]), the PDI amounted to 0.065 and the “ζ-Average (nm)” value amounted to 113.2 nm. The compound further had a PDI in data set [1] (setting [5]) of 0.009. The “ζ-Average (nm)” value in data set [1] (setting [6]) is given as 116.60 nm. Moreover, the “Fluc Activity in liver” value in the data set on liver came out at 2.87E+06 Avg Radiance [p/s/cm2/sr]. Besides, in data set [2], the “period for which quality remained good, −80° C.” value was determined as 1 week; the “period for which quality remained good, 5° C.” value is reported as 5 weeks; the “period for which quality remained good, 25° C.” value was found to be 5 weeks; the “period for which quality remained good, 40° C. (weeks)” value was determined as 5 weeks. Further, the “Fluc Activity in spleen” value in the data set on spleen amounted to 5.10E+06 Avg Radiance [p/s/cm2/sr]. Also, in the data set on F7, the “knockdown activity, compared with MC3” value is “higher knockdown activity” and the “F7 enzyme activity (Ratio using MC3 as 1)” value turned out to be 0.81. In data set [3], the “% siRNA encapsulation” value is given as 100.2% and the “% mRNA encapsulation” value is reported as 99.7%.

For the compound `CCCCCCCCCCC(CCCCCCCCCC)C(=O)OCCCCCCC(O)(CCCCCCOC(=O)C(CCCCCCCCCC)CCCCCCCCCC)CCCCOC(=O)C1CCN(C)CC1` [CL15F 12-10], in data set [1] (setting [4]), the PDI was determined as 0.014 and the “ζ-Average (nm)” value came to 100.2 nm. In addition, in data set [1] (setting [5]), the PDI stood at 0.030. Also, the “ζ-Average (nm)” value in data set [1] (setting [6]) is given as 97.59 nm. For the same compound, in the data set with liver, the “Fluc activity in the liver, compared with CL15F6” value is reported as “higher Fluc activity” and the “Fluc Activity in liver” value was 4.33E+07 Avg Radiance [p/s/cm2/sr]. In addition, in data set [2], the “period for which quality remained good, −80° C.” value is given as 1 week; the “period for which quality remained good, 5° C.” value turned out to be 5 weeks; the “period for which quality remained good, 25° C.” value is listed as 5 weeks; the “period for which quality remained good, 40° C. (weeks)” value was determined as 5 weeks. In addition, in the data set with spleen, the “Fluc Activity in spleen” value was 5.58E+06 Avg Radiance [p/s/cm2/sr]. For the same compound, in the data set with F7, the “knockdown activity, compared with MC3” value is reported as “higher knockdown activity” and the “F7 enzyme activity (Ratio using MC3 as 1)” value worked out at 0.51. In addition, in data set [3], the “% siRNA encapsulation” value came to 100.5% and the “% mRNA encapsulation” value is 99.78%.

For the compound `CCCCCCCCCCCC(CCC)C(=O)OCCCCCCC(O)(CCCCCCOC(=O)C(CCC)CCCCCCCCCCC)CCCCOC(=O)C1CCN(C)CC1` (stereo not shown) [CL15F 13-3], in data set [1] (setting [4]), the PDI worked out at 0.081 and the “ζ-Average (nm)” value came out at 126.0 nm. In data set [1] (setting [5]), this compound displayed a PDI of 0.048. In data set [1] (setting [6]), the “ζ-Average (nm)” value is 142.90 nm. In addition, the “Fluc Activity in liver” value with liver came to 3.51E+06 Avg Radiance [p/s/cm2/sr]. In data set [2], the “period for which quality remained good, −80° C.” value turned out to be 0 week; the “period for which quality remained good, 5° C.” value came out at 5 weeks; the “period for which quality remained good, 25° C.” value is listed as 5 weeks; the “period for which quality remained good, 40° C. (weeks)” value was determined as 5 weeks. In the data set on spleen, the “Fluc activity in the spleen, compared with CL15F6” value is “higher Fluc activity” and the “Fluc Activity in spleen” value is 6.11E+06 Avg Radiance [p/s/cm2/sr]. Also, the “F7 enzyme activity (Ratio using MC3 as 1)” value in the data set with F7 amounted to 1.11. Further, in data set [3], the “% siRNA encapsulation” value is 100.3% and the “% mRNA encapsulation” value worked out at 98.62%.

For the compound `CCCCCCCCCCCCC(CC)C(=O)OCCCCCCC(O)(CCCCCCOC(=O)C(CC)CCCCCCCCCCCC)CCCCOC(=O)C1CCN(C)CC1` (stereo not shown) [CL15F 14-2], in data set [1] (setting [4]), the PDI turned out to be 0.13 and the “ζ-Average (nm)” value is on record as 143.9 nm. Also, in data set [1] (setting [5]), the PDI amounted to 0.117. The “ζ-Average (nm)” value in data set [1] (setting [6]) came to 158.90 nm. In addition, in the data set with liver, the “Fluc activity in the liver, compared with CL15F6” value is recorded as “higher Fluc activity” and the “Fluc Activity in liver” value is 1.03E+07 Avg Radiance [p/s/cm2/sr]. Besides, in data set [2], the “period for which quality remained good, −80° C.” value came to 1 week; the “period for which quality remained good, 5° C.” value stood at 5 weeks; the “period for which quality remained good, 25° C.” value came to 5 weeks; the “period for which quality remained good, 40° C. (weeks)” value turned out to be 5 weeks. In the data set with spleen, the “Fluc activity in the spleen, compared with CL15F6” value is recorded as “higher Fluc activity” and the “Fluc Activity in spleen” value is 7.58E+06 Avg Radiance [p/s/cm2/sr]. For the same compound, in the data set on F7, the “F7 enzyme activity (Ratio using MC3 as 1)” value is listed as 1.82. For the same compound, in data set [3], the “% siRNA encapsulation” value was 100.2% and the “% mRNA encapsulation” value was 95.70%.
